Active and inactive are the calls of the source. No rule for the calls is given here.
Test system: CCRIS mutagenicity, Ames/micronucleus/aberration tests
Assay: CCRIS mutagenicity studies
Settings: Test System: AMES SALMONELLA TYPHIMURIUM
[1] = Strain/Indicator: TA98, Metabolic Activation: NONE, Method: STANDARD PLATE
[2] = Strain/Indicator: TA100, Metabolic Activation: NONE, Method: STANDARD PLATE

Measured: mutagenic call

CNC(=O)Oc1ccc2c(c1)[C@]1(C)CCN(C)[C@@H]1N2C
inactive: Strain/Indicator: TA97, Metabolic Activation: LIVER, S-9 (10%), Method: STANDARD PLATE inactive; negative | Strain/Indicator: TA97, Metabolic Activation: NONE, Method: STANDARD PLATE inactive; negative | Strain/Indicator: TA97, Metabolic Activation: S-9, Method: STANDARD PLATE inactive; negative | Strain/Indicator: TA98, Metabolic Activation: LIVER, S-9 (10%), Method: STANDARD PLATE inactive; negative | [1] inactive; negative | Strain/Indicator: TA98, Metabolic Activation: S-9, Method: STANDARD PLATE inactive; negative | Strain/Indicator: TA100, Metabolic Activation: LIVER, S-9 (10%), Method: STANDARD PLATE inactive; negative | [2] inactive; negative | Strain/Indicator: TA100, Metabolic Activation: S-9, Method: STANDARD PLATE inactive; negative | Strain/Indicator: TA102, Metabolic Activation: NONE, Method: STANDARD PLATE inactive; negative | Strain/Indicator: TA102, Metabolic Activation: S-9, Method: STANDARD PLATE inactive; negative | Strain/Indicator: TA104, Metabolic Activation: LIVER, S-9 (10%), Method: STANDARD PLATE inactive; negative | Strain/Indicator: TA104, Metabolic Activation: NONE, Method: STANDARD PLATE inactive; negative | Strain/Indicator: TA104, Metabolic Activation: S-9, Method: STANDARD PLATE inactive; negative | Strain/Indicator: TA1535, Metabolic Activation: LIVER, S-9 (10%), Method: STANDARD PLATE inactive; negative | Strain/Indicator: TA1535, Metabolic Activation: NONE, Method: STANDARD PLATE inactive; negative | Strain/Indicator: TA1535, Metabolic Activation: S-9, Method: STANDARD PLATE inactive; negative | Strain/Indicator: TA1537, Metabolic Activation: LIVER, S-9 (10%), Method: STANDARD PLATE inactive; negative | Strain/Indicator: TA1537, Metabolic Activation: NONE, Method: STANDARD PLATE inactive; negative | Strain/Indicator: TA1537, Metabolic Activation: S-9, Method: STANDARD PLATE inactive; negative | Strain/Indicator: TA1538, Metabolic Activation: LIVER, S-9 (10%), Method: STANDARD PLATE inactive; negative | Strain/Indicator: TA1538, Metabolic Activation: NONE, Method: STANDARD PLATE inactive; negative | Strain/Indicator: TA1538, Metabolic Activation: S-9, Method: STANDARD PLATE inactive; negative

O=NN1CCSC1[C@H](O)[C@@H](O)[C@@H](O)CO (stereo partly specified)
inactive: Strain/Indicator: TA98, Metabolic Activation: NONE, Method: PREINCUBATION inactive; negative | [1] inactive; negative | Strain/Indicator: TA98, Metabolic Activation: RAT, LIVER, S-9, AROCLOR 1254, Method: PREINCUBATION inactive; negative | Strain/Indicator: TA98, Metabolic Activation: RAT, LIVER, S-9, AROCLOR 1254, Method: STANDARD PLATE inactive; negative | Strain/Indicator: TA100, Metabolic Activation: NONE, Method: PREINCUBATION inactive; negative | [2] inactive; negative | Strain/Indicator: TA100, Metabolic Activation: RAT, LIVER, S-9, AROCLOR 1254, Method: PREINCUBATION inactive; negative | Strain/Indicator: TA100, Metabolic Activation: RAT, LIVER, S-9, AROCLOR 1254, Method: STANDARD PLATE inactive; negative

Source: PubChem BioAssay AID1259407 (Chemical Carcinogenesis Research Information System (CCRIS), 2018)
